Test results published in PMC7687128, “Extracellular loops matter – subcellular location and function of the lysine transporter Lyp1 from Saccharomyces cerevisiae” (The Febs Journal, 2020).

T1: Lyp1 (Lyp1-YPet) (Saccharomyces cerevisiae, UniProt P32487, G289A/W291A)
T1 construct: full-length, YPet fluorescent protein fusion, plasmid-expressed in S. cerevisiae, assayed in whole cells
T1 sequence (P32487 1-611 G289A/W291A): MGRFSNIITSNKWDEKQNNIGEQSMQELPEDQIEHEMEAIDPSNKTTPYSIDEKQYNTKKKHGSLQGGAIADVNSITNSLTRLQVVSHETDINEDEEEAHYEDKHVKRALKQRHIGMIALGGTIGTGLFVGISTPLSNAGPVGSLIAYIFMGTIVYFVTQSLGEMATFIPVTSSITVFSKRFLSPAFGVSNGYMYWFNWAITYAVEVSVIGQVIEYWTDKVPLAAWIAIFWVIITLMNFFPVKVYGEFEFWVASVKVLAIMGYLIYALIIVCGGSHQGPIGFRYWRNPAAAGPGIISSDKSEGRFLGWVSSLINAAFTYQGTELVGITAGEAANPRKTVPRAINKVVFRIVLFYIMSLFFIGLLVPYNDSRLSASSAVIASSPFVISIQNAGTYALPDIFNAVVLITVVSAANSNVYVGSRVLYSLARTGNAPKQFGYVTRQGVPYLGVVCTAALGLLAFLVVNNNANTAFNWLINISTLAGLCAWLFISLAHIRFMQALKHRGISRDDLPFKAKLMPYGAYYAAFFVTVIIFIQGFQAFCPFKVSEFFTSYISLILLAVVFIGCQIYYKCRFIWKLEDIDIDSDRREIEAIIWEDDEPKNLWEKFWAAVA

T2: Lyp1 (Lyp1-YPet) (Saccharomyces cerevisiae, UniProt P32487, I280A/G281A/F282A)
T2 construct: full-length, YPet fluorescent protein fusion, plasmid-expressed in S. cerevisiae, assayed in whole cells
T2 sequence (P32487 1-611 I280A/G281A/F282A): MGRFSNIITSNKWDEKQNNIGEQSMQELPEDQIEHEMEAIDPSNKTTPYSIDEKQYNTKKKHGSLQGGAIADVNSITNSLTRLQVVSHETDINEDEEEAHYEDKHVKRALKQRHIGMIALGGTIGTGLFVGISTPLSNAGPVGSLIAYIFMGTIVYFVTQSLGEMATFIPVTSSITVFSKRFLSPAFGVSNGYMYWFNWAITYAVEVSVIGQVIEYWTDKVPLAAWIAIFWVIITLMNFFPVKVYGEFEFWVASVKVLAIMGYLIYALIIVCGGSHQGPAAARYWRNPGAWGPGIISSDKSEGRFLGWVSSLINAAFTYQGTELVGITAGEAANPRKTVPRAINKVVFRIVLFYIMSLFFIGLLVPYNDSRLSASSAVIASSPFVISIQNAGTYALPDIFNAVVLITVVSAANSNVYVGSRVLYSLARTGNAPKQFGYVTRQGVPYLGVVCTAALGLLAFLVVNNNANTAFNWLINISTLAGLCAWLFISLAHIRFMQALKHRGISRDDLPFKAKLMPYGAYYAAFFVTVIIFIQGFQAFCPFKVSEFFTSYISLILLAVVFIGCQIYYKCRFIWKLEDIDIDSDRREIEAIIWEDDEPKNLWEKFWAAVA

T3: Lyp1 (Lyp1-YPet) (Saccharomyces cerevisiae, UniProt P32487)
T3 construct: full-length, YPet fluorescent protein fusion, plasmid-expressed in S. cerevisiae, assayed in whole cells
T3 sequence (P32487 1-611): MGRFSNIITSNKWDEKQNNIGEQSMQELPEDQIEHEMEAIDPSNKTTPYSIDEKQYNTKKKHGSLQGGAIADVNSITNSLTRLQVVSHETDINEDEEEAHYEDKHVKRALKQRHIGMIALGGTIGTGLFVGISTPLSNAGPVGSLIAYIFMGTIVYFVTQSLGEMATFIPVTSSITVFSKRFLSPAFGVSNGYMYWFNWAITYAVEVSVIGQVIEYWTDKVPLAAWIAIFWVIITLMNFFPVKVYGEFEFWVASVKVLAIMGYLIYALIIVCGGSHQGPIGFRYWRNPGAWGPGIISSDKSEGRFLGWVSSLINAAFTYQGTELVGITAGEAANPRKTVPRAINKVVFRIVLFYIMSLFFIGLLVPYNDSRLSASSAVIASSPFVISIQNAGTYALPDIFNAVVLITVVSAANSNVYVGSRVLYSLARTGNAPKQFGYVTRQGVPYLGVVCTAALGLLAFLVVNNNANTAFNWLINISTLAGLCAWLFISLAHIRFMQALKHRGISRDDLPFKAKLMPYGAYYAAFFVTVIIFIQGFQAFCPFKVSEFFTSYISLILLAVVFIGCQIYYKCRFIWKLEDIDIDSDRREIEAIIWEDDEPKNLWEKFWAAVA


Experiments:
Lyp1 (Lyp1-YPet) [1] = target: T1, Lyp1 (Lyp1-YPet); experiment: initial rate of […]-lysine uptake in S. cerevisiae cells; type: cell-based; details: out-to-in transport; 100 mM potassium phosphate, 10 mM glucose, pH 6.0, 30 °C; labelled compound
Lyp1 (Lyp1-YPet) [2] = target: T2, Lyp1 (Lyp1-YPet); experiment: as above; type: cell-based; details: out-to-in transport; 100 mM potassium phosphate, 10 mM glucose, pH 6.0, 30 °C; labelled compound
Lyp1 (Lyp1-YPet) [3] = target: T3, Lyp1 (Lyp1-YPet); experiment: competition with […]-lysine uptake in S. cerevisiae cells; type: cell-based; details: 20 µM [14C]-lysine, 100 mM potassium phosphate, 10 mM glucose, pH 6.0, 30 °C; competitor
[4] = substrate: NCCCC[C@H](N)C(=O)O; experiment: cells, lysate or membranes; type: cell-based, Saccharomyces cerevisiae; details: out-to-in transport, 100 mM potassium phosphate, 10 mM glucose, pH 6.0, 30 °C, labelled compound

Row | Molecule | % reduction of lysine transport at 100 mM (Lyp1 (Lyp1-YPet) [3]) [%] | Km [4] [µM] | also measured
1 | NCCCC[C@H](N)C(=O)O [L-lysine] | – | – | Km (Lyp1 (Lyp1-YPet) [1]): > 100 µM; Km (Lyp1 (Lyp1-YPet) [2]): > 100 µM
2 | C[C@H](N)C(=O)O [alanine] | > 80 | – | –
3 | N=C(N)NCCC[C@H](N)C(=O)O [arginine] | > 80 | – | –
4 | N[C@@H](Cc1cnc[nH]1)C(=O)O [histidine] | > 80 | – | –
5 | Lyp1 (Lyp1-YPet) (Saccharomyces cerevisiae S288C) (protein, full-length, YPet fluorescent protein fusion, plasmid-expressed in S. cerevisiae, assayed in whole cells) MGRFSNIITSNKWDEKQNNIGEQSMQELPEDQIEHEMEAIDPSNKTTPYSIDEKQYNTKKKHGSLQGGAIADVNSITNSLTRLQVVSHETDINEDEEEAHYEDKHVKRALKQRHIGMIALGGTIGTGLFVGISTPLSNAGPVGSLIAYIFMGTIVYFVTQSLGEMATFIPVTSSITVFSKRFLSPAFGVSNGYMYWFNWAITYAVEVSVIGQVIEYWTDKVPLAAWIAIFWVIITLMNFFPVKVYGEFEFWVASVKVLAIMGYLIYALIIVCGGSHQGPIGFRYWRNPGAWGPGIISSDKSEGRFLGWVSSLINAAFTYQGTELVGITAGEAANPRKTVPRAINKVVFRIVLFYIMSLFFIGLLVPYNDSRLSASSAVIASSPFVISIQNAGTYALPDIFNAVVLITVVSAANSNVYVGSRVLYSLARTGNAPKQFGYVTRQGVPYLGVVCTAALGLLAFLVVNNNANTAFNWLINISTLAGLCAWLFISLAHIRFMQALKHRGISRDDLPFKAKLMPYGAYYAAFFVTVIIFIQGFQAFCPFKVSEFFTSYISLILLAVVFIGCQIYYKCRFIWKLEDIDIDSDRREIEAIIWEDDEPKNLWEKFWAAVA | – | 10 | –
6 | Lyp1 (Lyp1-YPet) (Saccharomyces cerevisiae S288C; N390A/Q389A) (protein, full-length, YPet fluorescent protein fusion, plasmid-expressed in S. cerevisiae, assayed in whole cells) MGRFSNIITSNKWDEKQNNIGEQSMQELPEDQIEHEMEAIDPSNKTTPYSIDEKQYNTKKKHGSLQGGAIADVNSITNSLTRLQVVSHETDINEDEEEAHYEDKHVKRALKQRHIGMIALGGTIGTGLFVGISTPLSNAGPVGSLIAYIFMGTIVYFVTQSLGEMATFIPVTSSITVFSKRFLSPAFGVSNGYMYWFNWAITYAVEVSVIGQVIEYWTDKVPLAAWIAIFWVIITLMNFFPVKVYGEFEFWVASVKVLAIMGYLIYALIIVCGGSHQGPIGFRYWRNPGAWGPGIISSDKSEGRFLGWVSSLINAAFTYQGTELVGITAGEAANPRKTVPRAINKVVFRIVLFYIMSLFFIGLLVPYNDSRLSASSAVIASSPFVISIAAAGTYALPDIFNAVVLITVVSAANSNVYVGSRVLYSLARTGNAPKQFGYVTRQGVPYLGVVCTAALGLLAFLVVNNNANTAFNWLINISTLAGLCAWLFISLAHIRFMQALKHRGISRDDLPFKAKLMPYGAYYAAFFVTVIIFIQGFQAFCPFKVSEFFTSYISLILLAVVFIGCQIYYKCRFIWKLEDIDIDSDRREIEAIIWEDDEPKNLWEKFWAAVA | – | 7.4 ± 1.0 | –
7 | Lyp1 (Lyp1-YPet) (Saccharomyces cerevisiae S288C; E215A/W217A/Y216A) (protein, full-length, YPet fluorescent protein fusion, plasmid-expressed in S. cerevisiae, assayed in whole cells) MGRFSNIITSNKWDEKQNNIGEQSMQELPEDQIEHEMEAIDPSNKTTPYSIDEKQYNTKKKHGSLQGGAIADVNSITNSLTRLQVVSHETDINEDEEEAHYEDKHVKRALKQRHIGMIALGGTIGTGLFVGISTPLSNAGPVGSLIAYIFMGTIVYFVTQSLGEMATFIPVTSSITVFSKRFLSPAFGVSNGYMYWFNWAITYAVEVSVIGQVIAAATDKVPLAAWIAIFWVIITLMNFFPVKVYGEFEFWVASVKVLAIMGYLIYALIIVCGGSHQGPIGFRYWRNPGAWGPGIISSDKSEGRFLGWVSSLINAAFTYQGTELVGITAGEAANPRKTVPRAINKVVFRIVLFYIMSLFFIGLLVPYNDSRLSASSAVIASSPFVISIQNAGTYALPDIFNAVVLITVVSAANSNVYVGSRVLYSLARTGNAPKQFGYVTRQGVPYLGVVCTAALGLLAFLVVNNNANTAFNWLINISTLAGLCAWLFISLAHIRFMQALKHRGISRDDLPFKAKLMPYGAYYAAFFVTVIIFIQGFQAFCPFKVSEFFTSYISLILLAVVFIGCQIYYKCRFIWKLEDIDIDSDRREIEAIIWEDDEPKNLWEKFWAAVA | – | 34 ± 17 | –
8 | Lyp1 (Lyp1-YPet) (Saccharomyces cerevisiae S288C; G292A/G294A/P293A) (protein, full-length, YPet fluorescent protein fusion, plasmid-expressed in S. cerevisiae, assayed in whole cells) MGRFSNIITSNKWDEKQNNIGEQSMQELPEDQIEHEMEAIDPSNKTTPYSIDEKQYNTKKKHGSLQGGAIADVNSITNSLTRLQVVSHETDINEDEEEAHYEDKHVKRALKQRHIGMIALGGTIGTGLFVGISTPLSNAGPVGSLIAYIFMGTIVYFVTQSLGEMATFIPVTSSITVFSKRFLSPAFGVSNGYMYWFNWAITYAVEVSVIGQVIEYWTDKVPLAAWIAIFWVIITLMNFFPVKVYGEFEFWVASVKVLAIMGYLIYALIIVCGGSHQGPIGFRYWRNPGAWAAAIISSDKSEGRFLGWVSSLINAAFTYQGTELVGITAGEAANPRKTVPRAINKVVFRIVLFYIMSLFFIGLLVPYNDSRLSASSAVIASSPFVISIQNAGTYALPDIFNAVVLITVVSAANSNVYVGSRVLYSLARTGNAPKQFGYVTRQGVPYLGVVCTAALGLLAFLVVNNNANTAFNWLINISTLAGLCAWLFISLAHIRFMQALKHRGISRDDLPFKAKLMPYGAYYAAFFVTVIIFIQGFQAFCPFKVSEFFTSYISLILLAVVFIGCQIYYKCRFIWKLEDIDIDSDRREIEAIIWEDDEPKNLWEKFWAAVA | – | 63 ± 83 | –
9 | Lyp1 (Lyp1-YPet) (Saccharomyces cerevisiae S288C; F471A/T469A) (protein, full-length, YPet fluorescent protein fusion, plasmid-expressed in S. cerevisiae, assayed in whole cells) MGRFSNIITSNKWDEKQNNIGEQSMQELPEDQIEHEMEAIDPSNKTTPYSIDEKQYNTKKKHGSLQGGAIADVNSITNSLTRLQVVSHETDINEDEEEAHYEDKHVKRALKQRHIGMIALGGTIGTGLFVGISTPLSNAGPVGSLIAYIFMGTIVYFVTQSLGEMATFIPVTSSITVFSKRFLSPAFGVSNGYMYWFNWAITYAVEVSVIGQVIEYWTDKVPLAAWIAIFWVIITLMNFFPVKVYGEFEFWVASVKVLAIMGYLIYALIIVCGGSHQGPIGFRYWRNPGAWGPGIISSDKSEGRFLGWVSSLINAAFTYQGTELVGITAGEAANPRKTVPRAINKVVFRIVLFYIMSLFFIGLLVPYNDSRLSASSAVIASSPFVISIQNAGTYALPDIFNAVVLITVVSAANSNVYVGSRVLYSLARTGNAPKQFGYVTRQGVPYLGVVCTAALGLLAFLVVNNNANAAANWLINISTLAGLCAWLFISLAHIRFMQALKHRGISRDDLPFKAKLMPYGAYYAAFFVTVIIFIQGFQAFCPFKVSEFFTSYISLILLAVVFIGCQIYYKCRFIWKLEDIDIDSDRREIEAIIWEDDEPKNLWEKFWAAVA | – | 25 ± 21 | –
